According to US20230190743A1, “TREATMENT WITH ILEAL BILE ACID TRANSPORTER (IBAT) INHIBITORS FOR INCREASED EVENT-FREE SURVIVAL (EFS)” (Mirum Pharmaceuticals, Inc., priority 2021, published 2023):
Several values for one entry are separate records, joined by “and”; a condition that tells them apart may be missing. Equal entries are not always repeated.

Legend:
Type in all cases: in vivo, human
[1] = tested on: patients with PFIC due to BSEP deficiency; test: Longitudinal serum bile acid profiling by UHPLC-MS/MS in INDIGO patients
Experimental: Total and individual serum BAs (sBA) including the major sub-species of TCA, TUDCA, TCDCA, TDCA, TLCA, GCA, GUDCA, GCDCA, GDCA, GLCA, CA, UDCA, CDCA, DCA, LCA and 7α-hydroxy-4-cholesten-3-one (sterol-C4), a surrogate marker for BA synthesis, were measured using a validated ultraperformance liquid chromatography coupled with tandem mass spectrometry (UHPLC-MS/MS) assay. The internal standards, a cocktail of deuterium labeled standards were added to serum, calibrators and QC samples. sBA were extracted and separated on a Kinetex C18 (2.6 μm, 100×3.0 mm) column (Phenomenex, Torrance, Calif.) with gradient elution. Quantification of individual sBA was achieved by multiple reaction monitoring (MRM) of selected transitions. Total C24 bile acid concentrations were calculated from the sum of individual species. These assays were applied to the analysis of serum from 19 patients with genetically confirmed PFIC due to BSEP deficiency (open-label phase 2 INDIGO trial; NCT02057718) treated with MRX. Changes in the composition of sBA associated with pruritus improvement measured with the Itch Reported Outcome Observer (ItchRO[Obs]) score were monitored at intervals over 72 weeks, with pruritus responders, defined as >1 scale reduction, compared with nonresponders. Linear mixed model framework was also used to model longitudinal profiles of sBA and pruritus reduction over time.

patients with ALGS = test: Phase 2 ICONIC trial, 48-week HRQoL analysis by ItchRO treatment response; set-up: key to Beta, ItchRO treatment response at week 48 Yes vs No, PedsQL Generic Core Scale / Beta, ItchRO treatment response at week 48 Yes vs No, Family Impact Scale / Beta, ItchRO treatment response at week 48 Yes vs No, Multidimensional Fatigue Scale: regression beta in HRQoL score points (0-100 scale), responders vs not
Experimental: A retrospective analysis was performed of 48-week data from the Phase 2 ICONIC trial, a study with a 4-week double-blind, placebo-controlled, randomized drug withdrawal period in patients with ALGS. Patients had moderate to severe pruritus as measured using a validated caregiver-reported Itch Reported Outcome (ItchRO) severity assessment tool (0=none to 4=very severe). Clinically meaningful pruritus response was defined as a ≥1 point reduction in the ItchRO, from baseline to week 48. HRQoL was assessed using the Pediatric Quality of Life Inventory Generic Core (PedsQL; 0-100 scale, 100=best quality of life), Family Impact (FI), and Multidimensional Fatigue (MF) scale scores, and were collected via caregiver. The minimal clinically important difference (MCID) for the HRQoL assessments is 5 points. A subset of individual items from the HRQoL scales were also independently selected for assessment with treatment response. HRQoL scores and selected items were assessed at baseline and week 48 and stratified by treatment response status. P-values were calculated using t-tests or ANOVAs. Multivariate linear regression models were used to assess the relationship between the mean change from baseline in HRQoL score (dependent variable) and an indicator for treatment response (independent variable), adjusting for baseline HRQoL. Adjustment for additional baseline covariates was also explored for the following variables: age, gender, bilirubin, rifampicin use, height z-score, weight z-score, ItchRO, and serum bile acid.

[2] = tested on: patients with BSEP deficiency (PFIC2); test: INDIGO Phase 2 trial, HRQoL analysis by sBA treatment response at week 48; set-up: key to HRQoL score at week 48, PedsQL Generic Core Scale / HRQoL score at week 48, Multidimensional Fatigue Scale / HRQoL score at week 48, Family Impact Scale: HRQoL scale scores in points; MCID = 5 points; key to Beta, sBA treatment response at week 48 Yes vs No, Multidimensional Fatigue Scale / Beta, sBA treatment response at week 48 Yes vs No, Family Impact Scale: change from baseline in HRQoL score, in points (MCID 5 points); settings: for 5-point change, Family Impact Scale / 5-point change, Multidimensional Fatigue Scale / 5-point change, PedsQL Generic Core Scale / 10-point change, Family Impact Scale / 10-point change, Multidimensional Fatigue Scale / 10-point change, PedsQL Generic Core Scale: baseline to week 48; for HRQoL score at week 48, Family Impact Scale / HRQoL score at week 48, Multidimensional Fatigue Scale / HRQoL score at week 48, PedsQL Generic Core Scale / HRQoL score change from baseline to week 48, Family Impact Scale: mean ± SD
Experimental: This retrospective analysis included data from patients with BSEP deficiency from the INDIGO Phase 2 open-label trial of MRX in children with PFIC. Pruritus was measured using a validated caregiver-reported Itch Reported Outcome (ItchRO) severity assessment tool (0=none to 4=very severe). Serum bile acid (sBA) response with MRX was defined as a >75% decrease from baseline or reduction to <102 μmol/L from baseline to week 48. HRQoL was assessed using the Pediatric Quality of Life Inventory Generic Core (PedsQL), Family Impact (FI), and Multidimensional Fatigue (MF) scale scores, and were collected via caregiver. The minimal clinically important difference (MCID) for the HRQoL assessments is 5 points. A subset of individual items from the HRQoL scales were also selected for assessment with treatment response. HRQoL was assessed at baseline and week 48 and scores were stratified by treatment response. P-values were calculated using t-test or ANOVA. Multivariate linear regression models were used to assess the relationship between mean change from baseline in HRQoL score and indicators for treatment response, adjusting for baseline HRQoL.

[3] = over the 48 weeks, controlling for baseline score

With CCCCC1(CCCC)CS(=O)(=O)c2ccc(N(C)C)cc2[C@@H](c2ccc(OCc3ccc(C[N+]45CCN(CC4)CC5)cc3)cc2)[C@H]1O [maralixibat] the “reduction from baseline in total sBA, pruritus responders vs nonresponders” value ([1]; longitudinal data, p<0.05, result in words) was “significantly greater”, the “patients who met the pruritus-response criteria (>1 scale reduction ItchRO[Obs])” value ([1]; of the 19 patients, over 72 weeks) was 11 patients and the “proportion of unconjugated BA” value ([1]; pruritus nonresponders, p=0.09) was 0.61±0.24%. The “proportion of unconjugated BA” value ([1]; pruritus responders) was 9.84±4.87%, the “HRQoL at Week 48 (mean ± SD), Family Impact Scale” value (patients with ALGS; ItchRO Non-Responders) was 54.7 ± 20.0 and the “HRQoL at Week 48 (mean ± SD), Multidimensional Fatigue Scale” value (patients with ALGS; ItchRO Non-Responders) was 64.2 ± 15.1. For the same compound, the “HRQoL at Week 48 (mean ± SD), PedsQL Generic Core Scale” value (patients with ALGS; ItchRO Non-Responders) was 62.4 ± 14.5, the “HRQoL change from baseline to Week 48 (mean ± SD), Family Impact Scale” value (patients with ALGS; ItchRO Non-Responders) was 3.9 ± 7.8 and the “HRQoL change from baseline to Week 48 (mean ± SD), Multidimensional Fatigue Scale” value (patients with ALGS; ItchRO Non-Responders) was −3.1 ± 19.8. For the same compound, the “HRQoL change from baseline to Week 48 (mean ± SD), PedsQL Generic Core Scale” value (patients with ALGS; ItchRO Non-Responders) was 1.2 ± 11.1, the “HRQoL at Week 48 (mean ± SD), Family Impact Scale” value (patients with ALGS; ItchRO Responders) was 73.9 ± 19.6 and the “HRQoL at Week 48 (mean ± SD), Multidimensional Fatigue Scale” value (patients with ALGS; ItchRO Responders) was 76.2 ± 15.1. The “HRQoL at Week 48 (mean ± SD), PedsQL Generic Core Scale” value (patients with ALGS; ItchRO Responders) was 70.4 ± 15.7, the “HRQoL change from baseline to Week 48 (mean ± SD), Family Impact Scale” value (patients with ALGS; ItchRO Responders) was 17.8 ± 23.4 and the “HRQoL change from baseline to Week 48 (mean ± SD), Multidimensional Fatigue Scale” value (patients with ALGS; ItchRO Responders) was 25.8 ±23.0. The “HRQoL change from baseline to Week 48 (mean ± SD), PedsQL Generic Core Scale” value (patients with ALGS; ItchRO Responders) was 11.6 ± 20.3, the “Beta, ItchRO treatment response at week 48 Yes vs No, Multidimensional Fatigue Scale” value (patients with ALGS; multivariate regression, adjusted for baseline HRQoL, N = 21, CI −2.49, 30.32) was 13.92 and the “Beta, ItchRO treatment response at week 48 Yes vs No, Family Impact Scale” value (patients with ALGS; multivariate regression, adjusted for baseline HRQoL, N = 26, CI 1.01, 32.68) was 16.85. The “Beta, ItchRO treatment response at week 48 Yes vs No, PedsQL Generic Core Scale” value (patients with ALGS; multivariate regression, adjusted for baseline HRQoL, N = 27, CI −3.86, 21.38) was 8.76, the “HRQoL change from baseline to week 48 across all scales” value (patients with ALGS; non-responders, result in words) was “No clinically meaningful change” and the “average increase of Family Impact score, responders compared with non-responders” value (patients with ALGS; over the 48 weeks, controlling for baseline FI score) was 17 points and 16.9 points. The “average increase of Multidimensional Fatigue total score, responders compared with non-responders” value (patients with ALGS; over the 48 weeks, p=0.11) was 13.9 points, the “average increase of PedsQL Generic Core Total Scale Score, responders compared with non-responders” value (patients with ALGS; over the 48 weeks, p=0.19) was 8.8 points and the “Difference in change from baseline to week 48, HRQoL item Difficulty steeping through the night” value (patients with ALGS; responders vs non-responders) was 52.9. The “Difference in change from baseline to week 48, HRQoL item Feeling tired” value (patients with ALGS; responders vs non-responders) was 40.1, the “Difference in change from baseline to week 48, HRQoL item Feeling tired upon waking” value (patients with ALGS; responders vs non-responders) was 72.4 and the “Difference in change from baseline to week 48, HRQoL item Steeping a lot” value (patients with ALGS; responders vs non-responders) was 55.2. For the same compound, the “Difference in change from baseline to week 48, HRQoL item Taking a lot of naps” value (patients with ALGS; responders vs non-responders) was 40.4, the “Difference in change from baseline to week 48, HRQoL item Trouble sleeping” value (patients with ALGS; responders vs non-responders) was 45.4 and the “pruritus at week 48 of the ICONIC study” value (patients with ALGS; result in words) was “significant improvements in pruritus”. For the same compound, the “patients who achieved ItchRO treatment response (≥1 point reduction)” value (patients with ALGS; week 48, 27 patients) was 74%, the “patients who achieved sBA treatment response” value ([2]; at 48 weeks) was 6 patients and the “patients who achieved sBA treatment response (>75% decrease from baseline or <102 μmol/L)” value ([2]; at 48 weeks) was 28.6%. The “Beta, sBA treatment response at week 48 Yes vs No, Multidimensional Fatigue Scale” value ([2]; multivariate regression, N = 16, CI 3.5, 41.1) was 22.3, the “Beta, sBA treatment response at week 48 Yes vs No, Family Impact Scale” value ([2]; multivariate regression, N = 20, CI −7.7, 19.4) was 5.8 and the “average increase of Multidimensional Fatigue scale score, sBA responders versus non-responders” value [2, 3] was 22 points. For the same compound, the “mean increase of PedsQL score, sBA responders versus non-responders” value [2, 3] was 17 points, the “5-point change, Family Impact Scale” value ([2]; sBA Non-responders) was 1 (7.1) n (%) and the “5-point change, Multidimensional Fatigue Scale” value ([2]; sBA Non-responders) was 3 (25.0) n (%). For the same compound, the “5-point change, PedsQL Generic Core Scale” value ([2]; sBA Non-responders) was 2 (15.4) n (%), the “10-point change, Family Impact Scale” value ([2]; sBA Non-responders) was 1 (7.1) n (%) and the “10-point change, Multidimensional Fatigue Scale” value ([2]; sBA Non-responders) was 2 (16.7) n (%). For the same compound, the “10-point change, PedsQL Generic Core Scale” value ([2]; sBA Non-responders) was 2 (15.4) n (%), the “HRQoL score at week 48, Family Impact Scale” value ([2]; sBA Non-responders) was 62.7 ± 16.0 and the “HRQoL score at week 48, Multidimensional Fatigue Scale” value ([2]; sBA Non-responders) was 69.2 ± 18.5. For the same compound, the “HRQoL score at week 48, PedsQL Generic Core Scale” value ([2]; sBA Non-responders) was 65.9 ± 13.8, the “HRQoL score change from baseline to week 48, Family Impact Scale” value ([2]; sBA Non-responders) was −2.5 ± 9.8 and the “5-point change, Family Impact Scale” value ([2]; sBA Responders) was 4 (66.7) n (%). The “5-point change, Multidimensional Fatigue Scale” value ([2]; sBA Responders) was 4 (100) n (%), the “5-point change, PedsQL Generic Core Scale” value ([2]; sBA Responders) was 4 (80.0) n (%) and the “10-point change, Family Impact Scale” value ([2]; sBA Responders) was 4 (66.7) n (%). For the same compound, the “10-point change, Multidimensional Fatigue Scale” value ([2]; sBA Responders) was 4 (100) n (%), the “10-point change, PedsQL Generic Core Scale” value ([2]; sBA Responders) was 3 (60.0) n (%) and the “HRQoL score at week 48, Family Impact Scale” value ([2]; sBA Responders) was 60.0 ± 15.5. The “HRQoL score at week 48, Multidimensional Fatigue Scale” value ([2]; sBA Responders) was 76.0 ± 13.4, the “HRQoL score at week 48, PedsQL Generic Core Scale” value ([2]; sBA Responders) was 79.3 ± 9.5 and the “HRQoL score change from baseline to week 48, Family Impact Scale” value ([2]; sBA Responders) was 8.0 ± 20.7. The “patients with a change of ≥5 points in PedsQL Generic Core Total Scale Score” value ([2]; sBA non-responders) was 15.4%, the “patients with a ≥10-point change in PedsQL Multidimensional Fatigue Total Scale Score” value ([2]; sBA non-responders) was 16.7% and the “change in Family Impact Score from baseline to week 48” value ([2]; sBA responders) was greater than 1.5 times the MCID. The “patients with a change of ≥5 points in PedsQL Generic Core Total Scale Score” value ([2]; sBA responders) was 80.0% and the “patients with a ≥10-point change in PedsQL Multidimensional Fatigue Total Scale Score” value ([2]; sBA responders) was 100%.
